Test results published in US20220218675A1, “TREATMENT OF OCULAR DISEASE” (PREMARK PHARMA GMBH, priority 2019, published 2022).

Assays:
[1] = slightly soluble in water; cited from earlier work
[2] = system: animal models of skin inflammation; details: in vivo; cited from earlier work
skin = details: cited from earlier work
[3] = Solubility of pimecrolimus in different solvents (HPLC after 24-hour equilibration at 25 °C); assay type: physicochemical
Method: FIG. 2: Solubility of pimecrolimus in different solvents. […] Form B refers to the anhydrous, crystalline polymorph B of pimecrolimus that has been used in the manufacture of the composition according to the invention. The legend in the lower table defines the terms used for the categorization of solubility.
The solubility of pimecrolimus in different solvents was determined by HPLC after 24-hour equilibration (vibration) at 25.0+/−0.5° C. After the vibration, the precipitate was separated from the solution, dried and investigated by DSC and by X-ray diffraction pattern.

| SMILES | Solubility in water [1] | Efficacy in animal models of skin inflammation [2] | Potential for systemic immunosuppression (skin; compared with cyclosporin A and tacrolimus) | Anti-inflammatory activity in the skin, topical (skin; compared with cyclosporin A) | Skin atrophy (skin; in contrast to steroids) | Solubility in excipients that can be used in semi-solid formulations for dermal and ophthalmic use [3] | Solubility in aqueous solutions and water ([3]; 24-hour equilibration at 25.0+/-0.5 °C, HPLC, FIG. 2) |
| --- | --- | --- | --- | --- | --- | --- | --- |
| OCCc1ccccc1 [Phenyl ethyl alcohol, 2-phenyl-ethan-1-ol] | 2 ml/100 ml H2O | – | – | – | – | – | – |
| CC[C@@H]1/C=C(\C)C[C@H](C)C[C@H](OC)[C@H]2O[C@@](O)(C(=O)C(=O)N3CCCC[C@H]3C(=O)O[C@H](/C(C)=C/[C@@H]3CC[C@H](Cl)[C@H](OC)C3)[C@H](C)[C@@H](O)CC1=O)[C@H](C)C[C@@H]2OC [pimecrolimus, (1R,9S,12S,13R,14S,17R,18E,21S,23S,24R,25S,27R)-12-[(1E)-2-{(1R,3R,4S)-4-chloro-3-methoxycyclohexyl}-1-methylvinyl]-17-ethyl-1,14-dihydroxy-23,25-dimethoxy-13,19,21,27-tetramethyl-11,28-dioxa-4-aza-tricyclo[22.3.1.04,9]octacos-18-ene-2,3,10,16-tetraone] | – | highly effective | lower potential for systemic immunosuppression than cyclosporin A and tacrolimus | greater anti-inflammatory activity in the skin than cyclosporin A | does not induce skin atrophy | very poor | insoluble |
